In PubChem BioAssay (NCI) one finds GI50 and TGI data, which are given here for 21 compounds.

Where “and” joins values, the source holds several entries; their conditions need not be identical. Identical values can stand only once.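 The compound was tested at five concentrations on cells cultured in 96-well plates, with a 48-hour exposure period. Here, GI50 denotes the concentration required for 50% inhibition of growth. TGI marks complete inhibition of growth.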

Among the test systems are K-562 leukemia; KM12 colon; OVCAR-8 ovarian; HT29 colon; SF-295 CNS; RXF 393 renal; T-47D breast; M14 melanoma; SW-620 colon; PC-3 prostate.
Holding throughout (assay): growth of human tumour cells (NCI), 48 h

Consider `c1ccc2c(c1)O[As](O[As]1Oc3ccccc3O1)O2`, for which the GI50 is 1.66 µM in the test on K-562 leukemia; 7.79 µM in the test with KM12 colon; 2.59 µM in the test with OVCAR-8 ovarian; 2.75 µM with HT29 colon; 6.48 µM with SF-295 CNS; 1.64 µM with RXF 393 renal. In addition, the GI50 in the test on T-47D breast is 1.69 µM; in the test with M14 melanoma, 3.18 µM; with SW-620 colon it was 3.01 µM. Besides, the TGI is 7.28 µM in the test with K-562 leukemia; 20.6 µM in the test on KM12 colon; 15.4 µM with OVCAR-8 ovarian; 8.74 µM with HT29 colon; 22.9 µM in the test with SF-295 CNS; 13 µM in the test with RXF 393 renal. The TGI in the test on T-47D breast turned out to be 14.6 µM; in the test on M14 melanoma, 15.3 µM; in the test on SW-620 colon it was 14.8 µM.

`CN(C(=O)C1CCCCC1)c1ccccc1I(=O)=O`: the GI50 was 12.5 µM in the test on K-562 leukemia; 37.8 µM in the test with KM12 colon; 74.8 µM in the test on OVCAR-8 ovarian; 33.8 µM with HT29 colon; 36.5 µM in the test with SF-295 CNS; 68.5 µM with RXF 393 renal. Further, the GI50 with T-47D breast was 16.4 µM; in the test on SW-620 colon, 20 µM. The TGI with K-562 leukemia was 27.4 µM; with KM12 colon it was above 100 µM; with OVCAR-8 ovarian it was above 100 µM; in the test with HT29 colon, above 100 µM; in the test on SF-295 CNS, above 100 µM; in the test on RXF 393 renal, above 100 µM. Further, the TGI turned out to be 44.2 µM with T-47D breast and 44.6 µM in the test with SW-620 colon.

For `O=c1cc2n(c(=O)[nH]1)C1OC(C(O)C1O)[C@@H]2CCO` (stereo partly specified), the TGI in the test on K-562 leukemia, in the test with KM12 colon, with OVCAR-8 ovarian, in the test with HT29 colon, with SF-295 CNS and in the test with RXF 393 renal was above 100 µM each time. The TGI in the test with M14 melanoma and with SW-620 colon was above 100 µM in each case.

For the compound `CC(=O)[CH-]C(=O)c1ccccc1.CC(=O)[CH-]C(=O)c1ccccc1.[Nd+3].[OH-].[OH3+]`, the GI50 with K-562 leukemia, in the test with KM12 colon, in the test with OVCAR-8 ovarian, in the test with HT29 colon, in the test with SF-295 CNS and in the test with RXF 393 renal was above 100 µM each time. Further, the GI50 in the test on M14 melanoma and in the test on SW-620 colon was above 100 µM in each case. For the same compound, the TGI in the test with K-562 leukemia, in the test on KM12 colon, in the test with OVCAR-8 ovarian, in the test on HT29 colon, in the test with SF-295 CNS and in the test with RXF 393 renal was above 100 µM throughout. Also, the TGI with M14 melanoma and in the test on SW-620 colon was above 100 µM throughout.

For the compound `COc1ccc(CNc2cc(OC)cc(OC)c2)cc1`, the TGI in the test with K-562 leukemia, in the test on KM12 colon, in the test with OVCAR-8 ovarian, with HT29 colon, in the test with SF-295 CNS and in the test on RXF 393 renal was above 100 µM throughout. For the same compound, the TGI with M14 melanoma and in the test with SW-620 colon was above 100 µM throughout. Further, the GI50 is > 73.8 µM and 35 µM in the test with HT29 colon; > 100 µM and 38.2 µM with SF-295 CNS.

In the case of `CN(C)CCC1(C2=CCCC2)CC/C(=C\c2ccc3c(c2)OCO3)C1=O` (stereo unspecified), the TGI in the test with K-562 leukemia was determined as 32 µM; in the test with KM12 colon, 31.8 µM; in the test with OVCAR-8 ovarian it was 29 µM; with HT29 colon it was 25.2 µM; in the test with SF-295 CNS it was 29.5 µM; in the test on RXF 393 renal, 21.3 µM. The TGI in the test with M14 melanoma was 28.3 µM; with SW-620 colon, 29.9 µM.

As to `COc1cc2c(cc1OC)C13CCN4CC5=CCOC(CC(=O)O)C(C5CC41)C3N2` (stereo unspecified), the TGI with K-562 leukemia, in the test on KM12 colon, with OVCAR-8 ovarian, with HT29 colon, with SF-295 CNS and in the test with PC-3 prostate was above 100 µM each time. Besides, the TGI in the test on M14 melanoma and in the test with SW-620 colon was above 100 µM throughout.

Turning to `CC(C)(C)c1nc2c(o1)C(=Nc1ccccc1)c1ccccc1C2=O`, the TGI in the test with K-562 leukemia turned out to be 44.8 µM; with KM12 colon it was 50.3 µM; in the test on OVCAR-8 ovarian, 26.2 µM; in the test on HT29 colon, 57.8 µM; with SF-295 CNS, 10.2 µM; in the test with RXF 393 renal, 14.7 µM. Besides, the TGI with M14 melanoma amounted to 6.1 µM; in the test with SW-620 colon, 18.4 µM.

As for `CCc1nc2c(O)ccc(O)c2nc1C`, the TGI in the test with K-562 leukemia is above 20.8 µM; with KM12 colon it was 30.8 µM; with OVCAR-8 ovarian, 23.8 µM; with HT29 colon, 34.9 µM; in the test with SF-295 CNS, 34.2 µM; in the test with RXF 393 renal it was 25.5 µM. Besides, the TGI with M14 melanoma is 28.3 µM; in the test with SW-620 colon, 4.1 µM.

As to `COC(=O)OCC1OC(N2C(=O)NC(=O)C(I)C2N=[N+]=[N-])CC1OC(=O)OC` (stereo unspecified), the TGI with K-562 leukemia, with KM12 colon, in the test on OVCAR-8 ovarian, in the test with HT29 colon, in the test with SF-295 CNS and in the test with RXF 393 renal was above 100 µM throughout. Moreover, the TGI in the test with M14 melanoma and with SW-620 colon was above 100 µM in each case.

With `CN(C)CCNC(=O)c1ccc2ccc3cccnc3c2n1`, the TGI in the test with K-562 leukemia is above 100 µM; in the test on KM12 colon, 95.6 µM; with OVCAR-8 ovarian, above 100 µM; in the test with HT29 colon, above 100 µM; in the test with SF-295 CNS it was 88.2 µM; with RXF 393 renal, 27.3 µM. Moreover, the TGI in the test on M14 melanoma was 33.1 µM; with SW-620 colon, above 100 µM.

In the case of `O=C(Cc1ccccc1)Oc1ccc2c(-c3ccccc3)c(C(=O)Nc3ccc(Cl)cc3)c(=O)oc2c1`, the TGI in the test on K-562 leukemia, in the test on KM12 colon, with OVCAR-8 ovarian, in the test on HT29 colon, in the test with SF-295 CNS and in the test on RXF 393 renal was above 100 µM throughout. Besides, the TGI with M14 melanoma and in the test on SW-620 colon was above 100 µM each time.

Consider `Cc1cccc(C)c1NC(=O)CCC(=O)NNC(=O)c1cc(O)c2ccccc2c1`, for which the TGI in the test on K-562 leukemia was above 100 µM; in the test with KM12 colon, above 100 µM; with OVCAR-8 ovarian it was 87.4 µM; in the test on HT29 colon, above 100 µM; with SF-295 CNS, 87.6 µM; with RXF 393 renal it was above 100 µM. The TGI with M14 melanoma and with SW-620 colon was above 100 µM each time.

Take `COC(=O)c1cnc2nc(N3CCOCC3)[nH]n2c1=O`: the TGI in the test on K-562 leukemia, in the test on KM12 colon, in the test with OVCAR-8 ovarian, in the test with HT29 colon, in the test on SF-295 CNS and in the test with RXF 393 renal was above 100 µM each time. In addition, the TGI in the test on M14 melanoma and in the test on SW-620 colon was above 100 µM each time.

Regarding `COc1ccc(-c2cc(C(=O)Nc3cccc(C(F)(F)F)c3)[nH]c(=S)n2)cc1`, the TGI with K-562 leukemia, in the test with KM12 colon, in the test with OVCAR-8 ovarian, in the test with HT29 colon, with SF-295 CNS and in the test on RXF 393 renal was above 100 µM in each case. The TGI in the test with M14 melanoma and in the test on SW-620 colon was above 100 µM each time.

As for `CCOC(C)OCC#CCCBr` (stereo unspecified), the TGI in the test with K-562 leukemia, in the test with KM12 colon, in the test with OVCAR-8 ovarian, in the test with HT29 colon, with SF-295 CNS and with RXF 393 renal was above 100 µM throughout. Besides, the TGI in the test with M14 melanoma and in the test with SW-620 colon was above 100 µM each time.

`O=C1CCC2(c3ccc(F)cc3)Nc3ccccc3N12` (stereo unspecified): the TGI in the test with K-562 leukemia, with KM12 colon, in the test with OVCAR-8 ovarian, with HT29 colon, with SF-295 CNS and with RXF 393 renal was above 100 µM in each case. The TGI with M14 melanoma and in the test with SW-620 colon was above 100 µM in each case.

`CS(=O)(=O)C1S(=O)(=O)OCCOS1(=O)=O`: the TGI in the test with K-562 leukemia, in the test on KM12 colon, with OVCAR-8 ovarian, in the test on HT29 colon, in the test with SF-295 CNS and in the test on RXF 393 renal was above 100 µM throughout. In addition, the TGI in the test with M14 melanoma and in the test on SW-620 colon was above 100 µM each time.

Consider `O=[N+]([O-])c1ccccc1S(=O)c1ccccc1` (stereo unspecified), for which the TGI in the test on K-562 leukemia, in the test with KM12 colon, with OVCAR-8 ovarian, in the test on HT29 colon, in the test with SF-295 CNS and in the test with RXF 393 renal was above 100 µM each time. In addition, the TGI in the test on M14 melanoma and with SW-620 colon was above 100 µM each time.

`O=CC1=CCCC2(C1)OCCO2`: the TGI in the test with K-562 leukemia, with KM12 colon, in the test with OVCAR-8 ovarian, in the test with HT29 colon, in the test with SF-295 CNS and with RXF 393 renal was above 100 µM in each case. The TGI in the test on M14 melanoma and with SW-620 colon was above 100 µM in each case.

For the compound `O=c1/c(=C/c2cccc3ccccc23)sc2nc3ccccc3n12`, the TGI with K-562 leukemia, in the test with KM12 colon, with OVCAR-8 ovarian, with HT29 colon, with SF-295 CNS and in the test on RXF 393 renal was above 100 µM in each case. Further, the TGI in the test with M14 melanoma and in the test with SW-620 colon was above 100 µM each time.
